Source: PMC6530361, “Anti-tumor Efficacy Assessment of the Sigma Receptor Pan Modulator RC-106. A Promising Therapeutic Tool for Pancreatic Cancer” (Frontiers in Pharmacology, 2019)

Assays:
Capan-1 [1] = experiment: TUNEL assay; format: cell-based; conditions: Capan-1, RC-106 50 μM, 48 h
Method: (§1) TUNEL assay was performed as previously described ([Tesei et al., 2007]). Briefly, cells were fixed in 1% formaldehyde in PBS on ice for 15 min, suspended in 70% ice cold ethanol and stored overnight at […]. Cells were then washed twice in PBS and re-suspended in PBS containing 0.1% Triton X-100 for 5 min at […]. Thereafter, samples were incubated in 50 μL of solution containing TdT and FITC conjugated dUTP deoxynucleotides 1:1 (Roche Diagnostic GmbH, Mannheim, Germany) in a humidified atmosphere for 90 min at 37°C in the dark, washed in PBS, counterstained with propidium iodide (2.5 μg/mL, MP Biomedicals, Verona, Italy) and RNAse (10 kU/mL, Sigma–Aldrich) for 30 min at […] in the dark and analyzed by flow cytometry. Flow cytometric analysis was performed using a FACS Canto flow cytometer (Becton Dickinson, San Diego, CA, United States). Data acquisition and analysis were performed using FACSDiva software (Becton Dickinson). Samples were run in triplicate and 10,000 events were collected for each replicate.

Panc-1 [2] = experiment: TUNEL assay; format: cell-based; conditions: Panc-1, RC-106 50 μM, 48 h
Method: as §1

Capan-1 [3] = experiment: Migration scratch wound healing assay; format: cell-based
Method: (§2) Cells were seeded in a 6-well plate and were incubated at 37°C until confluence of 90–100% was reached. Culture medium was then replaced by serum free medium. After 24 h, a scratch was made on cell monolayer using a plastic tip and wells were washed 2 times with PBS to remove detached cells and debris. Culture medium, with or without RC-106, was added to each well. Micrographs of the scratches were taken at 0 h, immediately after the scratch, and at 24, 48, and 72 h. Cell migration area was quantified using IMAGEJ software.

Capan-2 = experiment: Migration scratch wound healing assay; format: cell-based; conditions: Capan-2, 20 and 40 μM, after 48 and 72 h
Method: as §2

Panc-1 [4] = experiment: Migration scratch wound healing assay; format: cell-based; conditions: Panc-1, 60 μM, all considered time points (24, 48, 72 h)
Method: as §2

[5] = In vivo pharmacokinetic study, plasma; design: species or system male CD-1 mice; conditions: mice
Method: The experiments were performed in agreement with the Italian Law D. L.vo 4 marzo 2014, n. 26. The treatments involved male CD-1 mice and a unique number on the tail identified each animal. Mice were housed, in groups of four, in cages suitable for the species. After 5 days of adaptation to the local housing conditions, animals were housed in a single, exclusive, air-conditioned room to provide a minimum of 15 air changes/hour. The environmental controls were set to maintain the temperature at around 22°C and the relative humidity within the range 50 to 60%, along with an approximate 12:12 h light/dark cycle automatically controlled. Food (Mucedola Standard GLP diet) and water were available ad libitum throughout the entire duration of the study. All animals were weighted on the day of the treatment.
Mice (n = 4/time point) received an intraperitoneal administration (i.p., 10 mL/kg) of RC-106 at 10 mg/kg. CD-1 male mice were exsanguinated under anesthesia (isoflurane) from the aorta at the following time points: 5, 10, 30, 120, 240, and 480 min. Blood samples were collected in tubes containing heparin, gently mixed and immediately placed on ice. Afterward, they have been centrifuged (3500 × g, at 4°C for 15 min), the obtained plasma has been collected and transferred to individually labeled tubes and frozen at -20°C until the analysis. Plasma samples were used for quantification of RC-106. Pancreas was taken by surgical resection after 20 min from the last treatment, washed in saline, dried on paper, weighted and frozen at -20°C. The organ was homogenized using a Velp OV5 homogenizer with 20 mM ammonium formiate buffer in a ratio of 1 g of tissue per 10 mL of buffer.
20 mg/mL stock solution (s.s.) of RC-106 was prepared by dissolving the compound in DMSO. 1 mL of 5% Tween80 in H2O was slowly added to 500 μL of s.s. under stirring. Then 8.5 mL of water was gently spiked to obtain the 1 mg/mL formulation of RC-106.
Standard curves of RC-106 were prepared for plasma and pancreas homogenate, and analyzed together with each QC and unknown sample set. For the PK and pancreas distribution sample analysis, plasma and pancreas homogenate samples (50 μL) were spiked in 200 μL of IS in MeOH (0.1 μg/mL of RC-33), followed by 2 min vortex mixing. Samples were centrifuged and transferred in UFLC vials. 5 μL aliquots of the collected samples were injected into the LC-MS/MS system. Standard calibration graphs were constructed by linear least-squares regression analysis on the analyte/IS area ratio plotted against sample concentration. Calibration ranges were from 5 to 1000 ng/mL for plasma, and from 5 to 500 ng/mL for pancreas homogenate. Accuracy values were determined in triplicates at three different concentrations (high, medium, and low) in the range of linearity of the calibration curves.
Analyses were acquired on a Shimadzu AC20 UFLC system interfaced with an API 3200 Triple Quadrupole detector (AB Sciex). Data acquisition and control were performed using the Analyst^TM 6.1 (Applied Biosystems) Software. A Phenomenex Gemini-NX C18 (50 mm × 2 mm, 5 μm) column was selected to carry out the analytical evaluations. A gradient method was set up (Supplementary Table S1) and it provided the employment of water and methanol, both containing 0.1% of formic acid, at a flow rate of 0.3 mL/min. The LC eluate was directly introduced into the MS interface using the ESI in the positive ion mode. The MRM transitions m/z 181.2 were tracked (Supplementary Table S2).

S1R = test system: S1R; design: method as in Rui et al., 2016; Rossi et al., 2017; conditions: ref Rui et al., 2016; Rossi et al., 2017; cited from earlier work
[6] = male, CD-1, mouse, plasma, ip, 10 mg/kg

## C/C(=C\CN1CCC(Cc2ccccc2)CC1)c1ccc2ccccc2c1 [RC-106, (E)-4-benzyl-1-(3-(naphthalen-2-yl)but-2-en-1-yl)piperidine]
Capan-1 [1]
  percentage of apoptotic cells: 78.55%
Panc-1 [2]
  percentage of apoptotic cells: 53.25%
Capan-1 [3]; Capan-1, 20 μM, after 48 h
  cell migration: significantly reduced
Capan-1 [3]; Capan-1, 40 and 60 μM, after 24 h
  cell migration: reduced cell migration
Capan-2
  cell migration: significatively reduceded
Panc-1 [4]
  cell migration: significatively reduced
[5]; [6]
  Cmax: 973 ng/mL
  Tmax: 5 min
[5]; male, CD-1, mouse, plasma, ip, 10 mg/kg, i.p., 10 mg/kg, read-out: AUC0-t, plasma (converted)
  AUC(0-t): 1130 ng·h/mL
[5]; male, CD-1, mouse, plasma, ip, 5 min after i.p. 10 mg/kg, read-out: plasma C
  concentration at 5 min: 973 ng/mL
[5]; male, CD-1, mouse, plasma, ip, 10 min after i.p. 10 mg/kg, read-out: plasma C
  concentration at 10 min: 884 ng/mL
[5]; male, CD-1, mouse, plasma, ip, 30 min after i.p. 10 mg/kg, read-out: plasma C
  concentration at 30 min: 361 ng/mL
[5]; male, CD-1, mouse, plasma, ip, 120 min after i.p. 10 mg/kg, read-out: plasma C
  concentration at 120 min: 134 ng/mL
[5]; male, CD-1, mouse, plasma, ip, 240 min after i.p. 10 mg/kg, read-out: plasma C
  concentration at 240 min: 76 ng/mL
[5]; male, CD-1, mouse, plasma, ip, 480 min after i.p. 10 mg/kg, read-out: plasma C
  concentration at 480 min: 38 ng/mL
[5]; male, CD-1, mouse, plasma, ip, i.p., 10 mg/kg, read-out: t1/2, plasma
  half-life: 3.37 h
[5]; i.p., 10 mg/kg
  AUC0-t, plasma: 67987 ng·min/mL
  Cmax, plasma: 973 ± 167 ng/mL
other
  melting point: 221 to 222 °C
S1R
  S1R modulatory profile: S1R antagonist
